Results reported in the supplement of paper PMC10307832.

Assays:
Experiment in all cases: relative viability (nuclei count vs DMSO), 5 days (fraction); higher = more cells survive
[1] = compound: COC1=CC=C(C=C1)COC2=C(C=C(C=C2)CC3=CN=C(N=C3N)N)OC [GW-2580] + CS(=O)(=O)CCNCc1ccc(-c2ccc3ncnc(Nc4ccc(OCc5cccc(F)c5)c(Cl)c4)c3c2)o1 [Lapatinib] (partner 2 µM)
Outline: (§1)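 Cells from lung cancer lines were seeded into 1536-well plates and, one day later, dosed by pin tool. Treatments were either a single drug or a fixed dose of an anchor drug with five library-drug doses (not always all listed) in √10 steps. After 5 days, nuclei were stained in a one-step fixation (final 0.05% Triton X-100, 1% formaldehyde, 1 ug/ml Hoechst) and counted on 4× images, and relative viability is the treated-to-vehicle nuclei ratio, as the median of duplicate plates.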

[2] = compound: Cc1cnc(Nc2ccc(OCCN3CCCC3)cc2)nc1Nc1cccc(S(=O)(=O)NC(C)(C)C)c1 [Fedratinib] + O=C(c1cc(Cc2n[nH]c(=O)c3ccccc23)ccc1F)N1CCN(C(=O)C2CC2)CC1 [Olaparib] (partner 8 µM)
Outline: as §1

[3] = compound: COC1=CC=C(C=C1)COC2=C(C=C(C=C2)CC3=CN=C(N=C3N)N)OC [GW-2580] + Cc1nc(Nc2ncc(C(=O)Nc3c(C)cccc3Cl)s2)cc(N2CCN(CCO)CC2)n1 [Dasatinib] (partner 0.075 µM)
Outline: as §1

[4] = compound: Cc1cnc(Nc2ccc(OCCN3CCCC3)cc2)nc1Nc1cccc(S(=O)(=O)NC(C)(C)C)c1 [Fedratinib] + CC1(C)CCC(c2ccc(Cl)cc2)=C(CN2CCN(c3ccc(C(=O)NS(=O)(=O)c4ccc(N[C@H](CCN5CCOCC5)CSc5ccccc5)c(S(=O)(=O)C(F)(F)F)c4)cc3)CC2)C1 [Navitoclax] (partner 0.5 µM)
Outline: as §1

[5] = compound: Cc1cnc(Nc2ccc(OCCN3CCCC3)cc2)nc1Nc1cccc(S(=O)(=O)NC(C)(C)C)c1 [Fedratinib] + C[C@@H](Oc1cc(-c2cnn(C3CCNCC3)c2)cnc1N)c1c(Cl)ccc(F)c1Cl [Crizotinib] (partner 1 µM)
Outline: as §1

[6] = compound: Cc1cnc(Nc2ccc(OCCN3CCCC3)cc2)nc1Nc1cccc(S(=O)(=O)NC(C)(C)C)c1 [Fedratinib] + Nc1ncn([C@H]2C[C@H](O)[C@@H](CO)O2)c(=O)n1 [Decitabine] (partner 2 µM)
Outline: as §1

| Cell Line | relative viability ([1]; first compound 0.08 µM) | relative viability ([1]; first compound 0.8 µM) | relative viability ([1]; first compound 2.53 µM) | relative viability ([1]; first compound 8 µM) | relative viability ([2]; first compound 0.1 µM) | relative viability ([2]; first compound 0.3162 µM) | relative viability ([2]; first compound 1 µM) | relative viability ([3]; first compound 0.08 µM) | relative viability ([3]; first compound 0.8 µM) | relative viability ([3]; first compound 2.53 µM) | relative viability ([3]; first compound 8 µM) | relative viability ([4]; first compound 0.1 µM) | relative viability ([4]; first compound 0.3162 µM) | relative viability ([4]; first compound 1 µM) | relative viability ([5]; first compound 0.1 µM) | relative viability ([5]; first compound 0.3162 µM) | relative viability ([5]; first compound 1 µM) | relative viability ([6]; first compound 0.1 µM) | relative viability ([6]; first compound 0.3162 µM) | relative viability ([6]; first compound 1 µM) |
| --- | --- | --- | --- | --- | --- | --- | --- | --- | --- | --- | --- | --- | --- | --- | --- | --- | --- | --- | --- | --- |
| HOP-62 | 0.856 | 0.986 | 0.997 | 1.12 | 0.712 | 0.352 | 0.518 | 0.756 | 0.728 | 0.639 | 0.697 | 1.03 | 1.01 | 1.07 | 0.786 | 0.891 | 0.784 | 0.224 | 0.172 | 0.202 |
| LC-2-ad | 1.14 | 0.982 | 0.992 | 0.896 | 0.709 | 0.701 | 0.724 | 0.715 | 0.771 | 0.737 | 0.55 | 0.436 | 0.45 | 0.3 | 0.474 | 0.444 | 0.446 | 0.902 | 0.776 | 0.741 |
| LCLC-97TM1 | 1.02 |  | 0.973 | 0.898 | 0.588 | 0.386 | 0.428 | 0.891 | 0.866 | 0.899 | 0.821 | 0.275 | 0.394 | 0.412 | 0.353 | 0.24 | 0.334 | 0.273 | 0.255 | 0.214 |
| LK-2 | 0.972 | 0.952 | 0.513 | 0.735 | 0.611 | 0.624 | 0.698 | 0.288 | 0.281 | 0.282 | 0.295 | 0.831 | 1.34 | 0.777 |  | 0.187 | 0.214 | 0.275 | 0.269 | 0.352 |
| LOU-NH91 | 0.748 | 0.811 | 0.649 | 0.789 | 0.847 | 0.941 | 0.91 | 0.555 | 0.719 | 0.517 | 0.553 | 0.588 | 0.786 | 0.575 | 0.701 | 0.764 | 0.75 | 0.756 | 0.798 | 0.785 |
| LU99A | 1.07 | 1.14 | 0.698 | 1.01 | 0.262 | 0.264 | 0.231 | 0.609 | 0.651 | 0.472 | 0.465 | 0.824 | 0.834 | 0.666 | 0.427 | 0.618 | 0.509 | 0.936 | 0.968 | 0.892 |
| LXF-289 | 0.941 | 0.946 | 0.815 | 0.829 | 1.11 | 1.01 | 0.994 | 0.208 | 0.267 | 0.177 | 0.217 | 0.925 | 0.875 | 0.939 | 0.81 | 0.79 | 0.804 | 0.36 | 0.338 | 0.378 |
| NCI-H23 | 1.03 | 1.09 | 0.936 | 1.25 | 0.286 | 0.3 | 0.289 | 0.847 | 0.921 | 0.757 | 0.792 | 0.87 | 0.75 | 0.73 | 0.305 | 0.475 | 0.41 | 0.322 | 0.338 | 0.324 |
